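Test compounds were applied to cells in 96-well plates for 48 hours at 5 doses. Here, GI50 denotes the concentration required for 50% inhibition of growth. The concentration for full growth arrest is given as TGI.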

Among the data in PubChem BioAssay (NCI) are GI50 and TGI values, retold here.

Test systems include BT-549 breast; CAKI-1 renal; HOP-62 NSCLC; HOP-92 NSCLC; HS 578T breast; LOX IMVI melanoma; OVCAR-5 ovarian; PC-3 prostate; SK-MEL-5 melanoma; SNB-75 CNS.
Assay in all cases: inhibition of tumour cell growth, NCI panel, 48 h

`Cc1cc(S(=O)(=O)Nc2nc3ccccc3c(=O)n2Cc2ccco2)c(S)cc1Cl`: the GI50 was 15.7 µM in the test with BT-549 breast; 44.1 µM with CAKI-1 renal; 32.8 µM in the test on HOP-62 NSCLC; greater than 100 µM in the test on HOP-92 NSCLC; 30.5 µM with HS 578T breast; 26.1 µM in the test on LOX IMVI melanoma. In addition, the GI50 in the test on OVCAR-5 ovarian is 60.4 µM; with PC-3 prostate it was 36.9 µM; in the test with SK-MEL-5 melanoma, 22.8 µM; in the test on SNB-75 CNS, 97 µM. The TGI in the test on BT-549 breast was 51.9 µM; in the test on CAKI-1 renal, greater than 100 µM; with HOP-62 NSCLC, 69.6 µM; with HOP-92 NSCLC it was greater than 100 µM; with HS 578T breast it was greater than 100 µM; in the test on LOX IMVI melanoma, 59.3 µM. Also, the TGI in the test with OVCAR-5 ovarian, in the test with PC-3 prostate, with SK-MEL-5 melanoma and with SNB-75 CNS was greater than 100 µM each time.

Take `CCOC(=O)C#Cc1cccc(C#CC(=O)OCC)c1`: the TGI in the test on BT-549 breast is 5.1 µM; in the test with CAKI-1 renal it was 10.2 µM; in the test with HOP-62 NSCLC it was 11.6 µM; in the test on HOP-92 NSCLC, 11.8 µM; in the test on HS 578T breast, greater than 30.3 µM; with LOX IMVI melanoma, 5.83 µM. The TGI with OVCAR-5 ovarian was determined as 2.4 µM; with PC-3 prostate, 14.9 µM; with SK-MEL-5 melanoma it was 8.29 µM; in the test with SNB-75 CNS it was 13.4 µM.
